Experimental findings from article PMC10794144, “A novel antibiotic class targeting the lipopolysaccharide transporter” (Nature, 2024) are described below.

Series [1] addresses T1, Adenosine A3 respetor (Homo sapiens, UniProt P0DMS8).
T1 construct: purchased Eurofins CEREP SA
T1 sequence (P0DMS8 1-318): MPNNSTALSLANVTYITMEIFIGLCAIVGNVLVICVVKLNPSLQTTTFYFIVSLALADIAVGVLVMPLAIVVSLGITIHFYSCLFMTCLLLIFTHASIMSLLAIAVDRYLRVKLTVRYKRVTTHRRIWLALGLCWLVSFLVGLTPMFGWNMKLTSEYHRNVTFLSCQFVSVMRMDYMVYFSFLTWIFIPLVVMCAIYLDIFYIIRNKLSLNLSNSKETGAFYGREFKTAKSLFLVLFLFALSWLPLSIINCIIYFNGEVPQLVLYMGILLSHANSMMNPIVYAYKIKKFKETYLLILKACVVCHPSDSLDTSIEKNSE
The series is described as follows: Off-target screening (CEREP). Particulars: read-out: percent inhibition. The series is classed as binding. The protocol:
(§1) Supplementary Table 1 │ Off-target activity screening f or MCP compou nds […]
(§2) The assays given in the table above were conducted at Eurofins CEREP S A (Celle-Lévescault, France) and were run as single point measurements in duplicates in the presence of 10 µ M of the test compound and reported as percent inhibition of the radioligand signal or control enzymatic activity. n.d., not

In series [2] the target is T2, Muscarinic receptor M2 (Homo sapiens, UniProt P08172).
T2 construct: purchased Eurofins CEREP SA
T2 sequence (P08172 1-466): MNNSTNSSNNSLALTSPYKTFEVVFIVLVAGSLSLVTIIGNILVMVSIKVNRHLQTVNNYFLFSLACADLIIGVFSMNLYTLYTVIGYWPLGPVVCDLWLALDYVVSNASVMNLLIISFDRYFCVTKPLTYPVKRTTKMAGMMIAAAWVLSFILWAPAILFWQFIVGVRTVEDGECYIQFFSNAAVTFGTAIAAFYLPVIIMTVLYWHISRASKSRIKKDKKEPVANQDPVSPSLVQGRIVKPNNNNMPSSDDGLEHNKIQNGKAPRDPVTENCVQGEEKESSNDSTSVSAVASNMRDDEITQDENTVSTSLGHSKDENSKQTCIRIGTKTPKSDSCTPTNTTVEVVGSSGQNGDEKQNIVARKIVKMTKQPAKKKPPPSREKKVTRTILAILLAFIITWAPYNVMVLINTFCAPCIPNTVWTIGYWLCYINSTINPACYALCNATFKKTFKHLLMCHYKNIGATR
Description: Off-target screening (CEREP). In kind it is binding. Particulars: read-out: percent inhibition. How it is done: as §1, §2

Series [3] concerns the target T3, Cholecystokinin 1 receptor (Homo sapiens, UniProt P32238).
T3 construct: purchased Eurofins CEREP SA
T3 sequence (P32238 1-428): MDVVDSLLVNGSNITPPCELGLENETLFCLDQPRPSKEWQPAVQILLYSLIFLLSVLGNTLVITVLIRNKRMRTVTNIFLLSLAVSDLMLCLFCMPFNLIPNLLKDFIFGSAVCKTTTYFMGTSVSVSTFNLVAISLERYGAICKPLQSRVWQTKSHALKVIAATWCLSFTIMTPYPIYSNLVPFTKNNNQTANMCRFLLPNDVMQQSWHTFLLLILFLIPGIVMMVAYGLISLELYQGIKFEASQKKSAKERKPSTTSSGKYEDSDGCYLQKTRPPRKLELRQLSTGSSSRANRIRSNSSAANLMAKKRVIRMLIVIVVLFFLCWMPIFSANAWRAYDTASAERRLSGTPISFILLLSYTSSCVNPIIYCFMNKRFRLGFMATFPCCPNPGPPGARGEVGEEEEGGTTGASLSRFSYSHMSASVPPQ
Description: Off-target screening (CEREP). In kind it is binding. The following applies: read-out: percent inhibition. How it is done: as §1, §2

Series [4] deals with T4, 5-HT transporter (Homo sapiens, UniProt P31645).
T4 construct: purchased Eurofins CEREP SA
The series is described as follows: Off-target screening (CEREP). In kind it is binding. Particulars: read-out: percent inhibition. How it is done: as §1, §2

In series [5] the target is T5, Estrogen receptor alpha (Homo sapiens, UniProt P03372).
T5 construct: purchased Eurofins CEREP SA
Description: Off-target screening (CEREP). In kind it is binding. The following applies: read-out: percent inhibition. The protocol: as §1, §2

Series [6] addresses T6, Mu opioid receptor (Homo sapiens, UniProt P35372).
T6 construct: purchased Eurofins CEREP SA
Description: Off-target screening (CEREP). In kind it is binding. The following applies: read-out: percent inhibition. How it is done:
as §1, §2

For series [7], the target named is T7, Cannabinoid receptor CB1 (Homo sapiens, UniProt P21554).
T7 construct: purchased Eurofins CEREP SA
Description: Off-target screening (CEREP). In kind it is binding. Particulars: read-out: percent inhibition. How it is done:
as §1, §2

In series [8] the target is T8, Dopamine D1 receptor (Homo sapiens, UniProt P21728).
T8 construct: purchased Eurofins CEREP SA
Description: Off-target screening (CEREP). In kind it is binding. Particulars: read-out: percent inhibition. The protocol:
as §1, §2

In series [9] the target is T9, Glucocorticoid receptor (Homo sapiens, UniProt P04150).
T9 construct: purchased Eurofins CEREP SA
T9 sequence (P04150 1-777): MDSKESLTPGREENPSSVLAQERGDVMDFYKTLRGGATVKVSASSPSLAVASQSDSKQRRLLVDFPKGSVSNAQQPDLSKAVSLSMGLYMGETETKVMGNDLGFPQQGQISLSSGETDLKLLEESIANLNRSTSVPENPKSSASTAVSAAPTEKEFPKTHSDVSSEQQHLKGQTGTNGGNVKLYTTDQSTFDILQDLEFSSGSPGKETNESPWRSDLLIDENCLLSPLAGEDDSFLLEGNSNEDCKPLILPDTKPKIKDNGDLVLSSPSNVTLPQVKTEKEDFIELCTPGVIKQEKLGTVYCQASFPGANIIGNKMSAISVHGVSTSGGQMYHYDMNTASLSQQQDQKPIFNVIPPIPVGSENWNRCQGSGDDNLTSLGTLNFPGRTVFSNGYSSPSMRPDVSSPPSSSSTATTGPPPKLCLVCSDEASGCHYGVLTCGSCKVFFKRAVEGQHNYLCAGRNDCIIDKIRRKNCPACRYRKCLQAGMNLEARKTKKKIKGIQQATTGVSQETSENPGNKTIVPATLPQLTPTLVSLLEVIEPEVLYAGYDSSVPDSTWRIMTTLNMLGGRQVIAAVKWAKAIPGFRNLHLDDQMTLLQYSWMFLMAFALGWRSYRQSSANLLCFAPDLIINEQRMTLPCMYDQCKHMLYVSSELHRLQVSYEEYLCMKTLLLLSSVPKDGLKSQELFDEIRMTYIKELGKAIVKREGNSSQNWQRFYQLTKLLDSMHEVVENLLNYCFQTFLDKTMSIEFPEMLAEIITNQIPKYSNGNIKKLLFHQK
The series is described as follows: Off-target screening (CEREP). In kind it is binding. The following applies: read-out: percent inhibition. The protocol:
as §1, §2

Series [10] addresses T10, 5HT2A (Homo sapiens, UniProt P28223).
T10 construct: purchased Eurofins CEREP SA
Description: Off-target screening (CEREP). In kind it is binding. The following applies: read-out: percent inhibition. The protocol: as §1, §2

In series [11] the target is CYP2C9 (Homo sapiens, UniProt P11712). The series is described as follows: CYP inhibition. The series is classed as in vitro ADME.
In series [12] the test system is PCP receptor. The series is described as follows: Off-target screening (CEREP). In kind it is binding, rat. The following applies: 10 µM, duplicates. How it is done: as §1, §2
Series [13] deals with Ca2+ channel (diltiazem site). Description: Off-target screening (CEREP). The following applies: 10 µM, duplicates. The series is classed as binding, rat. The protocol:
as §1, §2

The subject of series [14] is GABA Cl- channel receptor. The series is described as follows: Off-target screening (CEREP). The series is classed as binding, rat. Particulars: 10 µM, duplicates. How it is done:
as §1, §2

Series [15] can be described thus: Micronucleus test (MNT).
For series [16], the target named is CYP3A4 (Homo sapiens, UniProt P08684). The series is described as follows: CYP inhibition. The series is classed as in vitro ADME.

Where two headings read alike, the source gives them in different places. A value given as a limit tells only on which side of the number the result lay.

T5 sequence (P03372 whole entry): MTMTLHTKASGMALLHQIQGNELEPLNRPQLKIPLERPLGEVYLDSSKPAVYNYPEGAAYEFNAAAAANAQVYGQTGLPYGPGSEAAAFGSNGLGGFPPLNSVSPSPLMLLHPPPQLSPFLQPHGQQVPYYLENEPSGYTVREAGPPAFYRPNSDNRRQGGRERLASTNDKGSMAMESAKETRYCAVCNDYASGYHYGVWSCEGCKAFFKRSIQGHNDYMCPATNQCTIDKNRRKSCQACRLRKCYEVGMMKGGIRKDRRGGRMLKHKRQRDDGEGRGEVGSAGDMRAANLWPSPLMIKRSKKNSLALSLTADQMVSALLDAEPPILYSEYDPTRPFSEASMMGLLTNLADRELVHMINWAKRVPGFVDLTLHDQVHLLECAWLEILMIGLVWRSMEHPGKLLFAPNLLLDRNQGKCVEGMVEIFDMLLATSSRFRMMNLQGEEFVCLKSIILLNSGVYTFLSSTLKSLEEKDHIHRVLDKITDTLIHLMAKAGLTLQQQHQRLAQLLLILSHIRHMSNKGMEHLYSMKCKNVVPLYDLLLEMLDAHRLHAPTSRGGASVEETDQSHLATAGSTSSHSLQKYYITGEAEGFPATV
T7 sequence (P21554 whole entry): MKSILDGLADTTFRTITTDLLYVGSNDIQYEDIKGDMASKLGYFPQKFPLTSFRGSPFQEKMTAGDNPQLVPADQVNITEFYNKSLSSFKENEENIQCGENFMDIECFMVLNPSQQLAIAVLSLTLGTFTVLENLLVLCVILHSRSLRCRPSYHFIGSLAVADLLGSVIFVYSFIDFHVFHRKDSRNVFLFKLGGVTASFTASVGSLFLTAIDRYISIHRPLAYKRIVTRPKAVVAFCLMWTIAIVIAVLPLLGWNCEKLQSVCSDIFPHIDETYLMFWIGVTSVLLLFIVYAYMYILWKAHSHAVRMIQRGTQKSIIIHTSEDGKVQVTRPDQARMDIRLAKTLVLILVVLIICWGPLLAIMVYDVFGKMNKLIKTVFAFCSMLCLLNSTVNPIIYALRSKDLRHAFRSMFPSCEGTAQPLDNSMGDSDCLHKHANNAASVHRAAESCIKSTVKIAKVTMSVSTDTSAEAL
T10 sequence (P28223 whole entry): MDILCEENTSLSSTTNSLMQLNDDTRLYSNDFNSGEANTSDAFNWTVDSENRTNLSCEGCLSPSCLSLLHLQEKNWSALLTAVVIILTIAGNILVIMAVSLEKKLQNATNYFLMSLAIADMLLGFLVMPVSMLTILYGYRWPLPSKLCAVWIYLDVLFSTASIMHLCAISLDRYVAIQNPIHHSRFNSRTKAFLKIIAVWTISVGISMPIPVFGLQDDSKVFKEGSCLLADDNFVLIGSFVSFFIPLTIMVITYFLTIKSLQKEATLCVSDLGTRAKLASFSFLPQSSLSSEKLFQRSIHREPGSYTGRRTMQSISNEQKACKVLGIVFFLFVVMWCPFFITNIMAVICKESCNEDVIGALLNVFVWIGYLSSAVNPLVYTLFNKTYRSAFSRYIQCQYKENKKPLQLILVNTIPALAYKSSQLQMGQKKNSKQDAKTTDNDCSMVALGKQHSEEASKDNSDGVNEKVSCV
CYP2C9, sequence (P11712 whole entry): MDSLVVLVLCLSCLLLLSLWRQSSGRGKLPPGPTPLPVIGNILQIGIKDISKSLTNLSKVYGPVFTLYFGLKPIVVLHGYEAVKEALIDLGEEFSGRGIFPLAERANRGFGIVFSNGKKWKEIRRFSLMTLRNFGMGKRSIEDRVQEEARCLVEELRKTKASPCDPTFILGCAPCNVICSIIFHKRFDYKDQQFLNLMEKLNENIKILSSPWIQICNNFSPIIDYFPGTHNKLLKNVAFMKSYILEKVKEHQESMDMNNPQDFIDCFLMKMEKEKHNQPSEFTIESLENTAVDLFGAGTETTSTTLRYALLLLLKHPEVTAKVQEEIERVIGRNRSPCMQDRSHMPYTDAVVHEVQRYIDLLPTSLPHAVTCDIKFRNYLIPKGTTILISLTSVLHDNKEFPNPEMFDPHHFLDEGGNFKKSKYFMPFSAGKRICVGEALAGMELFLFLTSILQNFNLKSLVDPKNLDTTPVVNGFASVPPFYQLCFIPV
T6 sequence (P35372 whole entry): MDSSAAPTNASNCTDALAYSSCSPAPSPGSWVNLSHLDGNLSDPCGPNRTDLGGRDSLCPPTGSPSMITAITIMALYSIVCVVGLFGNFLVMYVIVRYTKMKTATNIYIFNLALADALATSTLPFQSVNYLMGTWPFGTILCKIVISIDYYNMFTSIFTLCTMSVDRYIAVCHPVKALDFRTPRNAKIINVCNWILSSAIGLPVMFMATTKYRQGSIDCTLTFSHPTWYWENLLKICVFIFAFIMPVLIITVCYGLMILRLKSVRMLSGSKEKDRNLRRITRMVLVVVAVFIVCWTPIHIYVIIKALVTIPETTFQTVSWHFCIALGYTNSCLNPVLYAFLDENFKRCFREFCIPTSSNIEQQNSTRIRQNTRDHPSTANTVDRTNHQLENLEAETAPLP
T8 sequence (P21728 whole entry): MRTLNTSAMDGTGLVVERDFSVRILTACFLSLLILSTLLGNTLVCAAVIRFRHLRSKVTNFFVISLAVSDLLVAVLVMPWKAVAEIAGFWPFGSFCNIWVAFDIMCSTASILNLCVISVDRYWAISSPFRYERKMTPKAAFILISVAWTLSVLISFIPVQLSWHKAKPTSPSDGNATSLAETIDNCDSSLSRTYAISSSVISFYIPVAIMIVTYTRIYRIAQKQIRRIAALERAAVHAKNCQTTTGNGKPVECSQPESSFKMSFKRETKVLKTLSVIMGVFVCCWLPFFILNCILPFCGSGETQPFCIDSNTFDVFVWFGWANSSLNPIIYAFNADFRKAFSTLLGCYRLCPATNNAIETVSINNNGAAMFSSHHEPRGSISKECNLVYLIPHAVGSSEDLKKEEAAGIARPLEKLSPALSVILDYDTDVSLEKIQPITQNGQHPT
CYP3A4, sequence (P08684 whole entry): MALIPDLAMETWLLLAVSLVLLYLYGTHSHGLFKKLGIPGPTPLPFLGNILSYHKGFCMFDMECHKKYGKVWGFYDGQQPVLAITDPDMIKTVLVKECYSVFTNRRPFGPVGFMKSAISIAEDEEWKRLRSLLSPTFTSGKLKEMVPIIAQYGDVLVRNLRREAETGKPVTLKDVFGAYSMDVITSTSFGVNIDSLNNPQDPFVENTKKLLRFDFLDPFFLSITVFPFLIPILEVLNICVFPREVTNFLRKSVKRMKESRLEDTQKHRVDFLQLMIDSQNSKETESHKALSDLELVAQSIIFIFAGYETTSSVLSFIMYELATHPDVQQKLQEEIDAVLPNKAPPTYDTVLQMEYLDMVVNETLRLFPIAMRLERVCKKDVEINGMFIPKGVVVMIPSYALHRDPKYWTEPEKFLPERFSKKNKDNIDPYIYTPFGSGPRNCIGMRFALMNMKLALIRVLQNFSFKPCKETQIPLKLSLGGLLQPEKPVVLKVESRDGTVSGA
T4 sequence (P31645 whole entry): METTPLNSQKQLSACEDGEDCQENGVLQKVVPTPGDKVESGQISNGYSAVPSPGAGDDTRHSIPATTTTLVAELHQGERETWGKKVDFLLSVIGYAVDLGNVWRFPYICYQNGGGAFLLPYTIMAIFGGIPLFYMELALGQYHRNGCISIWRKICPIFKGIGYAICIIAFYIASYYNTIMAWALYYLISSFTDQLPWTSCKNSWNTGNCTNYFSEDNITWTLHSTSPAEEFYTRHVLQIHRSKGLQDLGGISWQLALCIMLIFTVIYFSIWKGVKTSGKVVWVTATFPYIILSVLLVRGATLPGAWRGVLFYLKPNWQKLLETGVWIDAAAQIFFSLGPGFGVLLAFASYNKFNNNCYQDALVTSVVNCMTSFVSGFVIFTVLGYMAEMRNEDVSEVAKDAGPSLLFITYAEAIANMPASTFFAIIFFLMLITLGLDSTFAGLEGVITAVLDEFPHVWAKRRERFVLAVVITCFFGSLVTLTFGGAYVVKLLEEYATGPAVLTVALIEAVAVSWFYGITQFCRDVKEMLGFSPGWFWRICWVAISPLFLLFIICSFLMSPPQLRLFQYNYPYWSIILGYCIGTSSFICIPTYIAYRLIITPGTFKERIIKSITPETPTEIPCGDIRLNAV

`CN1C(=O)[C@H](CCCCN)NC(=O)[C@H](CCCN)NCc2cccnc2Sc2c(Cl)ccc(-c3ccc(C(=O)O)cc3)c2CNC(=O)[C@@H]1Cc1c[nH]c2ccccc12` [RO7202110]: the inhibition at 10 µM is 9% in series [1] (10 µM, duplicates); -1% in [2] (10 µM, duplicates); 0% in [3] (10 µM, duplicates); 13% in [4] (10 µM, duplicates); -7% in series [5] (10 µM, duplicates); 26% in series [6] (10 µM, duplicates). For the same molecule, the inhibition at 10 µM in [7] (10 µM, duplicates) was -24%; in series [8] (10 µM, duplicates), -7%; in series [9] (10 µM, duplicates) it was 9%; in [10] (10 µM, duplicates), 4%. Further, in [11], the “CYP inh. (2C9)” value was >50 (3A4) >50 (2C9) >50 (2D6) μM. The percent inhibition in series [12] is given as 9%; in series [13] it was 2%; in [14], -1%. Besides, the MNT entry in series [15] was “Negative”. Also, in [16], the “CYP inh. (3A4)” value is >50 (3A4) >50 (2C9) >50 (2D6) μM.
As for `CN1C(=O)[C@H](CCCCN)NC(=O)[C@H](CCCN)NCc2cccnc2Sc2c(Cl)ccc(Cl)c2CNC(=O)[C@@H]1Cc1c[nH]c2ccccc12` [RO7075573], the inhibition at 10 µM was 11% in [1]; 11% in series [2]; 32% in series [3]; 16% in series [4]; -3% in series [5]; 21% in [6]. Also, the inhibition at 10 µM is -16% in series [7], 8% in series [8], 9% in series [9] and -17% in series [10]. Also, the “CYP inh. (2C9)” value in [11] is greater than 50 µM. For the same molecule, the figures for the percent inhibition in series [12], in series [13] and in [14] were -10%, -1% and -9%, respectively. In addition, the MNT result in [15] was “Negative”. For the same molecule, the “CYP inh. (3A4)” value in series [16] was found to be 16 µM.
Turning to `CN1C(=O)[C@H](CCCCN)NC(=O)[C@H](CCCN)NCc2cccnc2Sc2cccc(-c3ccc(C(=O)O)cc3)c2CNC(=O)[C@@H]1Cc1c[nH]c2ccccc12` [zosurabalpin], the inhibition at 10 µM was 2% in series [1]; 17% in series [2]; -1% in series [3]; 2% in series [4]; 7% in series [5]; 4% in series [6]. Moreover, the inhibition at 10 µM in [7] is -20%; in [8], -3%; in series [9], -1%; in [10] it was 3%. In addition, in [11], the “CYP inh. (2C9)” value is recorded as >50 (3A4) >50 (2C9) >50 (2D6) μM. The percent inhibition in series [12] is listed as -24%; in series [13], -11%; in series [14], 1%. For the same molecule, the MNT entry in series [15] is “Negative”. The “CYP inh. (3A4)” value in series [16] is recorded as >50 (3A4) >50 (2C9) >50 (2D6) μM.
Take `CN1C(=O)[C@H](CCCN)NC(=O)[C@H](CCCN)NCc2ccccc2Sc2ccccc2CNC(=O)[C@@H]1Cc1c[nH]c2ccccc12` [RO7036668]: the inhibition at 10 µM in series [1] (10 µM, duplicates) stood at 32%; in series [2] (10 µM, duplicates), 14%; in [3] (10 µM, duplicates), 22%; in series [4] (10 µM, duplicates), 13%; in series [5] (10 µM, duplicates) it was 24%; in series [6] (10 µM, duplicates) it was 63%. In addition, the inhibition at 10 µM in series [7] (10 µM, duplicates) is -26%; in series [8] (10 µM, duplicates), 27%; in [9] (10 µM, duplicates), 3%; in series [10] (10 µM, duplicates) it was -2%. Further, in [11], the “CYP inh. (2C9)” value is greater than 50 µM. Besides, in [16], the “CYP inh. (3A4)” value is 18 µM.

As a reminder, the inhibition is the relative decrease from the control value, in per cent.
